# Assay results taken from patent US11274332B2, “Methods of administering 3,4-diaminopyridine” (SERB SA, priority 2011, dated 2022).
# Assay: Food-effect crossover study, adverse events after single 20 mg amifampridine phosphate in healthy subjects (Examples 10, 11)
# Type: in vivo
# Method: This was a randomized, open-label, 2-treatment, 2-period crossover study with 44 completed subjects to assess the safety, tolerability, and the effect of food on the relative bioavailability of a single dose of amifampridine phosphate.
# Safety was evaluated for all subjects who take at least one dose of 3,4-DAP. Safety was evaluated by recording the incidence of adverse events (AEs), physical examination, vital signs, concomitant medications, clinical laboratory assessments, and 12-lead electrocardiogram (ECG).
# Analysis for the following safety parameters was carried out on the Safety Population: AEs which included all AEs, AEs by severity, drug-related AEs, deaths, SAEs, AEs leading to study discontinuation, and most frequent AEs, standard clinical laboratory tests, vital signs, ECG measurements, routine physical examinations, and prior and concomitant medications. The cut-off for frequency of AEs reported was determined based on the data. No formal statistical testing was performed for the safety analyses; only descriptive statistics were provided. Appropriate descriptive statistics for the safety data were determined using SAS Version 9.2.
# AEs were coded according to the Medical Dictionary for Regulatory Activities (MedDRA; Version 13.0). […] The occurrence of AEs was assessed continuously from the time the subject signed the VID and consent. The reporting period for non-serious AEs was from the first dose to the final study visit. The investigator determined the severity of each event and the relationship of an AE to the IP and recorded it on the source documents and AE CRF. The nature, time of onset, duration, severity, and relationship to study drug was documented, including documentation of investigator assessment and review. All events were assessed to determine if the AE was serious.
# The Investigator determined the severity of each event and the event was recorded on the source documents and AE CRF. A coding of “mild” meant there was no limitation of usual activities, “moderate” meant there was some limitation of usual activities, “severe” meant there was an inability to carry out usual activities.
# The reporting period for AEs that met the criteria of an SAE began from the time of signing the VID and consent form through follow-up or early termination. […] Clinical Laboratory Assessments
structure (smiles),measurement,setting,value
"Nc1ccncc1N.O=P(O)(O)O [amifampridine phosphate, 3,4-diaminopyridine phosphate]","Paraesthesia, drug-related AE: subjects",Male N=31,6
same,"Possibly or probably related AEs, Mild: % of subjects",Male N=31,58%
same,"Possibly or probably related AEs, Mild: events",Male N=31,51
same,"Possibly or probably related AEs, Mild: subjects",Male N=31,18
same,"Possibly or probably related AEs, Moderate: % of subjects",Male N=31,(0%) [0]
same,"Possibly or probably related AEs, Moderate: events",Male N=31,(0%) [0]
same,"Possibly or probably related AEs, Moderate: subjects",Male N=31,0
same,"Possibly or probably related AEs, Severe: % of subjects",Male N=31,(0%) [0]
same,"Possibly or probably related AEs, Severe: events",Male N=31,(0%) [0]
same,"Possibly or probably related AEs, Severe: subjects",Male N=31,0
same,"Possibly or probably related AEs, Total: % of subjects",Male N=31,58%
same,"Possibly or probably related AEs, Total: events",Male N=31,51
same,"Possibly or probably related AEs, Total: subjects",Male N=31,18
same,Serious adverse events: % of subjects,Male N=31,(0%) [0]
same,Serious adverse events: events,Male N=31,(0%) [0]
same,Serious adverse events: subjects,Male N=31,0
same,"Skin and Subcutaneous Tissue Disorders Total, drug-related AE: % of subjects",Male N=31,3%
same,"Skin and Subcutaneous Tissue Disorders Total, drug-related AE: events",Male N=31,1
same,"Skin and Subcutaneous Tissue Disorders Total, drug-related AE: subjects",Male N=31,1
same,"Vascular Disorders Total, drug-related AE: % of subjects",Male N=31,(0%) [0]
same,"Vascular Disorders Total, drug-related AE: events",Male N=31,(0%) [0]
same,"Vascular Disorders Total, drug-related AE: subjects",Male N=31,0
same,paraesthesias among the 93 drug-related AEs: % of events,Overall,54%
same,paraesthesias among the 93 drug-related AEs: events,Overall,50
same,"Abdominal Pain Upper, drug-related AE: % of subjects",Overall N=47,4%
same,"Abdominal Pain Upper, drug-related AE: events",Overall N=47,2
same,"Abdominal Pain Upper, drug-related AE: subjects",Overall N=47,2
same,"Abdominal Pain, drug-related AE: % of subjects",Overall N=47,6%
same,"Abdominal Pain, drug-related AE: events",Overall N=47,3
same,"Abdominal Pain, drug-related AE: subjects",Overall N=47,3
same,"Abdominal Tenderness, drug-related AE: % of subjects",Overall N=47,2%
same,"Abdominal Tenderness, drug-related AE: events",Overall N=47,1
same,"Abdominal Tenderness, drug-related AE: subjects",Overall N=47,1
same,"Acne, drug-related AE: % of subjects",Overall N=47,2%
same,"Acne, drug-related AE: events",Overall N=47,1
same,"Acne, drug-related AE: subjects",Overall N=47,1
same,"All treatment emergent AEs, Mild: % of subjects",Overall N=47,64%
same,"All treatment emergent AEs, Mild: events",Overall N=47,98
same,"All treatment emergent AEs, Mild: subjects",Overall N=47,30
same,"All treatment emergent AEs, Moderate: % of subjects",Overall N=47,4%
same,"All treatment emergent AEs, Moderate: events",Overall N=47,2
same,"All treatment emergent AEs, Moderate: subjects",Overall N=47,2
same,"All treatment emergent AEs, Severe: % of subjects",Overall N=47,2%
same,"All treatment emergent AEs, Severe: events",Overall N=47,1
same,"All treatment emergent AEs, Severe: subjects",Overall N=47,1
same,"All treatment emergent AEs, Total: events",Overall N=47,101
same,"All treatment emergent AEs, Total: subjects",Overall N=47,31
same,"Constipation, drug-related AE: % of subjects",Overall N=47,2%
same,"Constipation, drug-related AE: events",Overall N=47,1
same,"Constipation, drug-related AE: subjects",Overall N=47,1
same,"Diarrhoea, drug-related AE: % of subjects",Overall N=47,2%
same,"Diarrhoea, drug-related AE: events",Overall N=47,1
same,"Diarrhoea, drug-related AE: subjects",Overall N=47,1
same,Discontinued due to adverse events: % of subjects,Overall N=47,2%
same,Discontinued due to adverse events: events,Overall N=47,1
same,Discontinued due to adverse events: subjects,Overall N=47,1
same,"Dizziness, drug-related AE: % of subjects",Overall N=47,11%
same,"Dizziness, drug-related AE: events",Overall N=47,7
same,"Dizziness, drug-related AE: subjects",Overall N=47,5
same,"Dysgeusia, drug-related AE: % of subjects",Overall N=47,4%
same,"Dysgeusia, drug-related AE: events",Overall N=47,3
same,"Dysgeusia, drug-related AE: subjects",Overall N=47,2
same,"Fatigue, drug-related AE: % of subjects",Overall N=47,9%
same,"Fatigue, drug-related AE: events",Overall N=47,4
same,"Fatigue, drug-related AE: subjects",Overall N=47,4
same,"Feeling Hot, drug-related AE: % of subjects",Overall N=47,2%
same,"Feeling Hot, drug-related AE: events",Overall N=47,1
same,"Feeling Hot, drug-related AE: subjects",Overall N=47,1
same,"Flushing, drug-related AE: % of subjects",Overall N=47,2%
same,"Flushing, drug-related AE: events",Overall N=47,1
same,"Flushing, drug-related AE: subjects",Overall N=47,1
same,"Gastrointestinal Disorders Total, drug-related AE: % of subjects",Overall N=47,19%
same,"Gastrointestinal Disorders Total, drug-related AE: events",Overall N=47,12
same,"Gastrointestinal Disorders Total, drug-related AE: subjects",Overall N=47,9
same,"General Disorders and Administration Site Conditions Total, drug-related AE: % of subjects",Overall N=47,11%
same,"General Disorders and Administration Site Conditions Total, drug-related AE: events",Overall N=47,5
same,"General Disorders and Administration Site Conditions Total, drug-related AE: subjects",Overall N=47,5
same,"Headache, drug-related AE: % of subjects",Overall N=47,11%
same,"Headache, drug-related AE: events",Overall N=47,5
same,"Headache, drug-related AE: subjects",Overall N=47,5
same,"Hypoaesthesia Facial, drug-related AE: % of subjects",Overall N=47,2%
same,"Hypoaesthesia Facial, drug-related AE: events",Overall N=47,1
same,"Hypoaesthesia Facial, drug-related AE: subjects",Overall N=47,1
same,"Hypoaesthesia Oral, drug-related AE: % of subjects",Overall N=47,11%
same,"Hypoaesthesia Oral, drug-related AE: events",Overall N=47,6
same,"Hypoaesthesia Oral, drug-related AE: subjects",Overall N=47,5
same,"Hypoaesthesia, drug-related AE: % of subjects",Overall N=47,4%
same,"Hypoaesthesia, drug-related AE: events",Overall N=47,2
same,"Hypoaesthesia, drug-related AE: subjects",Overall N=47,2
same,"Nausea, drug-related AE: % of subjects",Overall N=47,9%
same,"Nausea, drug-related AE: events",Overall N=47,4
same,"Nausea, drug-related AE: subjects",Overall N=47,4
same,"Nervous System Disorders Total, drug-related AE: % of subjects",Overall N=47,57%
same,"Nervous System Disorders Total, drug-related AE: events",Overall N=47,74
same,"Nervous System Disorders Total, drug-related AE: subjects",Overall N=47,27
same,"Paraesthesia Oral, drug-related AE: % of subjects",Overall N=47,43%
same,"Paraesthesia Oral, drug-related AE: events",Overall N=47,30
same,"Paraesthesia Oral, drug-related AE: subjects",Overall N=47,20
same,"Paraesthesia, drug-related AE: % of subjects",Overall N=47,26%
same,"Paraesthesia, drug-related AE: events",Overall N=47,20
same,"Paraesthesia, drug-related AE: subjects",Overall N=47,12
same,"Possibly or probably related AEs, Mild: % of subjects",Overall N=47,64%
same,"Possibly or probably related AEs, Mild: events",Overall N=47,92
same,"Possibly or probably related AEs, Mild: subjects",Overall N=47,30
same,"Possibly or probably related AEs, Moderate: % of subjects",Overall N=47,2%
same,"Possibly or probably related AEs, Moderate: events",Overall N=47,1
same,"Possibly or probably related AEs, Moderate: subjects",Overall N=47,1
same,"Possibly or probably related AEs, Severe: % of subjects",Overall N=47,(0%) [0]
same,"Possibly or probably related AEs, Severe: events",Overall N=47,(0%) [0]
same,"Possibly or probably related AEs, Severe: subjects",Overall N=47,0
same,"Possibly or probably related AEs, Total: % of subjects",Overall N=47,64%
same,"Possibly or probably related AEs, Total: events",Overall N=47,93
same,"Possibly or probably related AEs, Total: subjects",Overall N=47,30
same,Serious adverse events: % of subjects,Overall N=47,(0%) [0]
same,Serious adverse events: events,Overall N=47,(0%) [0]
same,Serious adverse events: subjects,Overall N=47,0
same,"Skin and Subcutaneous Tissue Disorders Total, drug-related AE: % of subjects",Overall N=47,2%
same,"Skin and Subcutaneous Tissue Disorders Total, drug-related AE: events",Overall N=47,1
same,"Skin and Subcutaneous Tissue Disorders Total, drug-related AE: subjects",Overall N=47,1
same,"Vascular Disorders Total, drug-related AE: % of subjects",Overall N=47,2%
same,"Vascular Disorders Total, drug-related AE: events",Overall N=47,1
same,"Vascular Disorders Total, drug-related AE: subjects",Overall N=47,1
same,safety and tolerability,"single oral 20 mg, fed and fasted",safe and well tolerated
same,deaths or SAEs,whole study,no deaths or SAEs
